Four compounds from ChEMBL document CHEMBL1201862, “PubChem BioAssay data set” (2004) can be followed below.

Test systems include ACHN; COLO 205; EKVX; HCC 2998; HL-60; HOP-92; Hs-578T; K562; M14; MDA-MB-231; Malme-3M; NCI-H23; NCI-H460; OVCAR-3; OVCAR-5; SF-268; SF-295; SNB-75; SR; UO-31.
Holding throughout (experiment): inhibition of tumour cell growth, NCI panel, 48 h

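Growth conditions: 96-well plates. Treatment: test compound, 48 hours, 5 concentrations. Analysis: linear interpolation between bracketing concentrations; unreached endpoints set to highest concentration. At the GI50, growth is halved.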 Active and inactive are the calls of the source. Rule as the data show it: active = GI50 up to about 1.1 µM and inactive = higher. Some results are limits rather than exact numbers.

Turning to `Cc1ccc(-n2cc(-c3ccc(Cl)cc3)c3c2N=CN2N=C(c4cccs4)NC32)cc1` (stereo not given), the GI50 with ACHN is 5.07 µM (inactive); in the assay with COLO 205 it was 6.71 µM (inactive); in the assay on EKVX, 18.1 µM (inactive); with HCC 2998, 57 µM (inactive); with HL-60, 19.1 µM (inactive); in the assay on HOP-92, 7.64 µM (inactive). Moreover, the GI50 in the assay on Hs-578T is 2.07 µM (inactive); in the assay on K562 it was 11.7 µM (inactive); in the assay with M14, 18.7 µM (inactive); in the assay on MDA-MB-231 it was 4.52 µM (inactive); with Malme-3M, 38.4 µM (inactive); in the assay with NCI-H23, 15.3 µM (inactive). For the same compound, the GI50 is 5.31 µM (inactive) in the assay with NCI-H460; 9.73 µM (inactive) in the assay with OVCAR-3; 11.1 µM (inactive) in the assay on OVCAR-5; 17.8 µM (inactive) in the assay on SF-268; 9.18 µM (inactive) in the assay with SF-295; 8.38 µM (inactive) with SNB-75. The GI50 in the assay on SR and in the assay with UO-31 was 7.64 µM (inactive) each time.
`O=[N+]([O-])c1ccc2c(/N=N/c3c(O)ccc4ccccc34)c(O)cc(S(=O)(=O)O)c2c1`: the GI50 in the assay on ACHN was 4.86 µM (inactive); in the assay with COLO 205, 18.3 µM (inactive); with EKVX it was > 50 µM (inactive); with HCC 2998, 63.1 µM (inactive); with HL-60 it was 1.09 µM (active); in the assay on HOP-92, 16.6 µM (inactive). Besides, the GI50 in the assay with Hs-578T was > 50 µM (inactive); with K562, 9.16 µM (inactive); with M14, 4.07 µM (inactive); with MDA-MB-231 it was 18 µM (inactive); in the assay on Malme-3M it was 4.06 µM (inactive); in the assay on NCI-H23 it was 20.9 µM (inactive). Further, the GI50 with NCI-H460 is 44.4 µM (inactive); in the assay with OVCAR-3, 1.69 µM (inactive); in the assay on OVCAR-5 it was 8.34 µM (inactive); in the assay with SF-268, 7.31 µM (inactive); in the assay on SF-295, 13.3 µM (inactive); with SNB-75 it was 21.9 µM (inactive). The values for the GI50 with SR and in the assay with UO-31 were 26.2 µM (inactive) and 2.45 µM (inactive), respectively.
For the compound `COc1cccc([C@H]2C/C(=N\NC(=O)C(=O)N[C@@H](C)c3ccccc3)c3ccccc3N2)c1`, the GI50 in the assay with ACHN was 0.0381 µM (active); with COLO 205, 0.0167 µM (active); with EKVX it was 0.0927 µM (active); with HCC 2998, 0.017 µM (active); with HL-60, > 10 µM (inactive); in the assay with HOP-92, 7.5 µM (inactive). The GI50 in the assay on Hs-578T is 0.0237 µM (active); with K562, < 0.01 µM (active); with M14, 0.0249 µM (active); with MDA-MB-231, 0.0923 µM (active); in the assay with Malme-3M, > 10 µM (inactive); in the assay with NCI-H23 it was > 10 µM (inactive). The GI50 in the assay with NCI-H460 was > 10 µM (inactive); with OVCAR-3 it was 0.0181 µM (active); in the assay with OVCAR-5 it was 16.8 µM (inactive); in the assay on SF-268, 7.05 µM (inactive); with SF-295, < 0.01 µM (active); with SNB-75 it was 8.53 µM (inactive). The GI50 is > 10 µM (inactive) with SR and 0.0378 µM (active) in the assay with UO-31.
Turning to `CCC1(O)CC(OC2CC(N(C)C)C(OC3CC(O)C(OC4CCC(=O)C(C)O4)C(C)O3)C(C)O2)c2c(O)c3c(c(O)c2C1C(=O)OC)C(=O)c1cccc(O)c1C3=O` (stereo not given), the GI50 was 0.00134 µM (active) with ACHN; 0.00327 µM (active) with COLO 205; 0.012 µM (active) in the assay on EKVX; 0.0172 µM (active) in the assay with HCC 2998; 0.00586 µM (active) with HL-60; 0.0344 µM (active) in the assay on HOP-92. In addition, the GI50 in the assay with Hs-578T was 0.00221 µM (active); with K562 it was 0.000274 µM (active); in the assay with M14, 0.01 µM (active); in the assay on MDA-MB-231 it was 0.0181 µM (active); with Malme-3M, 0.0125 µM (active); with NCI-H23, 0.00589 µM (active). The GI50 in the assay on NCI-H460 is 0.000434 µM (active); in the assay on OVCAR-3 it was 0.0155 µM (active); in the assay with OVCAR-5, 0.00575 µM (active); in the assay with SF-268 it was 0.0316 µM (active); with SF-295 it was 0.00219 µM (active); in the assay on SNB-75, 0.00881 µM (active). Also, the GI50 in the assay on SR is 0.00897 µM (active); in the assay on UO-31, 0.00508 µM (active).
